Experimental data as given in US6995243B2, “Antibodies that recognize and bind phosphorylated human glucocorticoid receptor and methods of using same” (New York University, priority 2002, dated 2006).
“Also recorded” adds a separate entry of the source. One block for each compound: values may come before it.

Columns and labels:
[1] = molecular target: total GR (Homo sapiens, UniProt P04150); details: 12 h continuous hormone treatment, 100 nM
Protocol: FIGS. 7A–7C are immunoblots and graph showing the kinetics of S203 and S211 phosphorylation in response to Dex treatment. U2OS-hGR cells were treated with ethanol (−) or Dex (100 nM) for the time indicated. Whole cell lysates were prepared, normalized and analyzed by immunoblotting with phospho-S203, phospho-S211 or HA antibodies. Immunoblot images of GR phosphorylated at S203 and S211 in the first hour of Dex treatment (FIG. 7A) or throughout 12 h of continuous Dex treatment (FIG. 7B); the total GR in each sample was determined by immunoblotting for HA. In FIG. 7C, quantitative analysis of immunoblot results in panel B normalized to total GR detected by HA. The data shown are from a single experiment that is representative of at least three independent experiments. […]
Cell extracts or immunoprecipitates containing GR were separated by 10% SDS-polyacrylamide gel electrophoresis (PAGE) and were transferred to Immobilon paper (Millipore Corp., Bedford, Mass.) at 110V for 80 min in Tris-Glycine transfer buffer. […] Endogenous GR was detected using the N499 polyclonal antibody, raised against residues 1–499 of the human GR. […] Quantitative analysis of immunoblots was performed using the NIH image software package (version 1.62).

[2] = molecular target: T1, human GR phosphorylated at S211 (Homo sapiens, UniProt P04150); assay: Immunoblot of GR S211 phosphorylation in U2OS-hGR cell extracts; assay type: cell-based; details: 1 h; for GR phosphorylation at S211: ligand 100 nM, U2OS-hGR cells
T1 construct: expressed in transfected cells
T1 sequence (P04150 1-777): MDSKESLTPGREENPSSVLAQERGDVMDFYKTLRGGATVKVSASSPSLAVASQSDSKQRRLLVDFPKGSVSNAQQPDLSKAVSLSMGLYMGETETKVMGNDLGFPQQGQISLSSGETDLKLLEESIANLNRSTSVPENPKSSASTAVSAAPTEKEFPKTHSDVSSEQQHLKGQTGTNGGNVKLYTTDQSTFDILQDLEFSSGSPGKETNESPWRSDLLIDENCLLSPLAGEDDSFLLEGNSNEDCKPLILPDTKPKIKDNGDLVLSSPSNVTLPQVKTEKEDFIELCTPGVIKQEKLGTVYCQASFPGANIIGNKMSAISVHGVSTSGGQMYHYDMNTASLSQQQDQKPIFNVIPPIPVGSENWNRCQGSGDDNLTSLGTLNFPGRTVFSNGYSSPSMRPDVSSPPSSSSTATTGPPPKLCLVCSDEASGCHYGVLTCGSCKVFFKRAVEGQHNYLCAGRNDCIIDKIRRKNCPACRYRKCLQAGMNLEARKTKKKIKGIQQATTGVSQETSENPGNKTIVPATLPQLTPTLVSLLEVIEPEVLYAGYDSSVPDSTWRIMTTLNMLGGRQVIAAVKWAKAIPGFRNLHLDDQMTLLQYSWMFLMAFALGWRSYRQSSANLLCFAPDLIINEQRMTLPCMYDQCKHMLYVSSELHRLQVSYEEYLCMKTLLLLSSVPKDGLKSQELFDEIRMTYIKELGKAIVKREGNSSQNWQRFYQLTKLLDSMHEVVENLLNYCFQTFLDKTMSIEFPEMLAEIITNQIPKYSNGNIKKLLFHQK
Protocol: In FIG. 6A, U20S-hGR were treated with ethanol (−) or the ligands indicated (100 nM) for 1 hour and whole cell extracts were prepared. For antagonism experiments, a 10-fold excess of RU486 (1 μM) or ZK299 (1 μM) were added simultaneously with 100 nM Dex for 1 h prior to cell lysis. Equal amounts of protein from each treatment were analyzed by immunoblotting with either phospho-S203, phospho-S211 or HA antibodies, reflective of the amount of total GR present in each lane.
Cells were placed on ice, washed twice in phosphate-buffer saline (PBS), lysed in 0.5 ml of buffer containing 50 mM HEPES, pH 7.5, 150 mM NaCl, 1 mM EDTA, 1 mM EGTA, 1 mM NaF, 1% Triton X-100, 10% glycerol and additional protease and phosphatase inhibitors: 1 mM PMSF, 20 mM β-glycerophosphate, 8 mM sodium pyrophosphate, 1 μg/ml leupeptin, pepstatin A and aprotinin (Roche). […] The soluble supernatants were normalized for total protein concentration using the Bio-Rad protein assay (Bio-Rad Laboratories, Hercules, Calif.) and the samples were boiled for 3 min in 2×SDS sample buffer and stored at −20° C.
Cell extracts or immunoprecipitates containing GR were separated by 10% SDS-polyacrylamide gel electrophoresis (PAGE) and were transferred to Immobilon paper (Millipore Corp., Bedford, Mass.) at 110V for 80 min in Tris-Glycine transfer buffer. The membranes were blocked overnight in 5% bovine serum albumin (BSA) in Tris-buffered saline, pH 7.4 (TBS) (blocking solution) at 4° C., then were incubated in the blocking buffer with primary antibody at room temperature (RT) for 2–4 h using 1:1,000 and 1:10,000 dilution of serum for phospho-S211 (Ab353) and phospho-S203 (Ab211), respectively. […] The membranes were washed three times for 10 min in TBS/0.1% Triton X-100 and twice in TBS and incubated for 1 h at RT with 0.2 μg/ml protein A conjugated to horseradish peroxidase (HRP) (Kirkegaard and Perry Laboratories, Gaithersburg, Md.). For blots using the anti-HA-tag monoclonal antibody (α-HA; Roche), an HRP-conjugated goat-anti-mouse IgG secondary antibody was used. Blots were then washed three times for 10 min in TBS-0.1% Triton X-100, twice in TBS and developed using enhanced chemiluminescence (ECL) according to manufacturer's instructions (Amersham Pharmacia Biotech Inc., Piscataway, N.J.).

[3] = system: GR-mediated transcriptional activation; assay: MMTV-luciferase reporter GR transcriptional activation in U2OS-hGR cells; assay type: cell-based, human; details: ligand 100 nM, 1 h
Protocol: In FIG. 6B, U2OS-hGR cells were transiently transfected with the MMTV-luciferase reporter construct along with pCMV-lacZ as an internal control. After 16 h, the cells were treated with ligands indicated (100 nM) for 1 h, conditions identical to those used for the immunoblot analysis, and luciferase activity determined.

[4] = molecular target: T2, human GR phosphorylated at S203 (Homo sapiens, UniProt P04150); details: ligand 100 nM, 1 h, U2OS-hGR cells
T2 sequence (P04150 1-777): T1 sequence (P04150 1-777)
Protocol: In FIG. 6A, U20S-hGR were treated with ethanol (−) or the ligands indicated (100 nM) for 1 hour and whole cell extracts were prepared. For antagonism experiments, a 10-fold excess of RU486 (1 μM) or ZK299 (1 μM) were added simultaneously with 100 nM Dex for 1 h prior to cell lysis. Equal amounts of protein from each treatment were analyzed by immunoblotting with either phospho-S203, phospho-S211 or HA antibodies, reflective of the amount of total GR present in each lane. In FIG. 6B, U2OS-hGR cells were transiently transfected with the MMTV-luciferase reporter construct along with pCMV-lacZ as an internal control. After 16 h, the cells were treated with ligands indicated (100 nM) for 1 h, conditions identical to those used for the immunoblot analysis, and luciferase activity determined.
Cells were placed on ice, washed twice in phosphate-buffer saline (PBS), lysed in 0.5 ml of buffer containing 50 mM HEPES, pH 7.5, 150 mM NaCl, 1 mM EDTA, 1 mM EGTA, 1 mM NaF, 1% Triton X-100, 10% glycerol and additional protease and phosphatase inhibitors: 1 mM PMSF, 20 mM β-glycerophosphate, 8 mM sodium pyrophosphate, 1 μg/ml leupeptin, pepstatin A and aprotinin (Roche). Lysates were centrifuged at 12,000 rpm for 15 min at 4° C. […]

[5] = molecular target: T3, GR (Homo sapiens, UniProt P04150); details: cited from earlier work
T3 sequence (P04150 1-777): T1 sequence (P04150 1-777)

SMILES: C[C@@H]1C[C@H]2[C@@H]3CCC4=CC(=O)C=C[C@]4(C)[C@@]3(F)[C@@H](O)C[C@]2(C)[C@@]1(O)C(=O)CO [Dex, dexamethasone]
- Reduction of total GR [1]: ~80%

SMILES: C[C@]12C=CC(=O)C=C1CC[C@@H]1[C@@H]2[C@@H](O)C[C@@]2(C)[C@H]1CC[C@]2(O)C(=O)CO [Prednisolone]
- GR phosphorylation at S211 [2]: promoted S211 phosphorylation; also recorded: induced robust GR phosphorylation at S211
- GR transcriptional activation (MMTV-luciferase) [3]: pattern mirrored in the GR transcriptional activation assay

- Blocking of Dex-dependent GR phosphorylation ([2]; 10-fold molar excess (1 μM) added with 100 nM Dex): not as effective
- GR phosphorylation at S211 [2]: almost no effect
- GR phosphorylation at S203 [4]: almost no effect
SMILES: CN(C)c1ccc([C@H]2C[C@]3(C)[C@@H](CC[C@]3(O)CCCO)[C@@H]3CCC4=CC(=O)CCC4=C32)cc1 [ZK299]

SMILES: C=C1[C@@H](O)[C@@H]2O[C@]3(CC[C@H](/C=C/[C@@H](C)[C@@H]4CC(C)=C[C@@]5(O[C@H](C[C@@](C)(O)C(=O)O)CC[C@H]5O)O4)O3)CC[C@H]2O[C@@H]1[C@@H](O)C[C@H](C)[C@H]1O[C@@]2(CCCCO2)CC[C@H]1C [okadaic acid]
- Effect on GR reported in the literature [5]: results in GR hyperphosphorylation
